From patent US20250034099A1, “BENZOXAZINONE DERIVATIVES” (CHIA TAI TIANQING PHARMACEUTICAL GROUP CO., LTD., priority 2021, published 2025)
Read-outs that look alike come from different tables or passages of the source.

Tests used:
MR = target: T1, MR (Homo sapiens, UniProt P08235); assay: In vitro evaluation of MR antagonistic activity (HEK293/Gal4/MR cell line, Bright Glo); format: cell-based; details: HEK293/Gal4/MR cells, aldosterone final 1 nmol, 24 h incubation
T1 sequence (P08235 726-984 limits assumed): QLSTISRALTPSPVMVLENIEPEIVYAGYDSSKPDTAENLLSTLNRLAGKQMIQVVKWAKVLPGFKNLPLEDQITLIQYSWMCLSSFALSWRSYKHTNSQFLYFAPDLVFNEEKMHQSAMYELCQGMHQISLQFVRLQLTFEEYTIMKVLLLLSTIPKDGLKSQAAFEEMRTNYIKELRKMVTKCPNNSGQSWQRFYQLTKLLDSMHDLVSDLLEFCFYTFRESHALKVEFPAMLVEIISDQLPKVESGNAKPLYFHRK
Experimental: Purpose of Experiment: to assay the MR antagonistic activity of the compounds
A DMEM medium purchased from BI; fetal bovine serum purchased from Biosera; an HEK293/Gal4/MR cell line provided by Wuhan Heyan Biomedical Technology Co., Ltd.; Bright Glo purchased from Promega; and an EnVision multi-marker analyzer (PerkinElmer).
MR cells were seeded in a white 96-well plate, with […] of cell suspension containing 40000 cells added to each well. The cell plate was incubated in a CO2 incubator overnight.
The compounds to be tested were serially 5-fold diluted to the 8th concentration point with a multi-channel pipette, and the compound concentration ranged from 2 mmol to […]. 38 μL of the medium was added to an intermediate plate, and the compound was added to corresponding wells of the intermediate plate at 2 μL/well. After well mixing, the compound solution was transferred to the cell plate at 10 μL/well, and the cell plate was incubated in a CO2 incubator for 1 h. Aldosterone was diluted to 10 nmol with a medium, i.e., 20 μL of aldosterone with a concentration of 1 μmol was added to 1980 μL of the medium. After well mixing, 10 μL of the aldosterone solution was added to each well of the cell plate except the positive control wells. The cell plate was incubated in a CO2 incubator for 24 h. The final concentration of the compound ranged from 10 μmol to 0.128 nmol, and the final concentration of aldosterone was 1 nmol. After the incubation was completed, the cell supernatant was discarded, and the Bright Glo reagent was added to the cell plate at 100 μL/well. Readings were taken immediately on the EnVision multi-marker analyzer.
The original data were converted to inhibition rates using the following equation: % inhibition=((RFUcmpd−AVER(RFUNeg.Ctrl))/((AVER(RFUPos.Ctrl)−AVER(RFUNeg.Ctrl))×100%. Compound curves were fitted by log(inhibitor) vs. response-Variable slope of Graphpad Prism 5. IC50 values were calculated by the software using the following formula: Y=Bottom+(Top−Bottom)/(1+10^((Log IC50−X)×HillSlope)).

[1] = Pharmacokinetic evaluation in rats after IV and PO administration; format: in vivo; details: rat, plasma, male SD rats; for bioavailability / clearance / Vd: IV (1 mg/kg); for bioavailability: read-out: Bioavailability F (%); for clearance: read-out: Clearance CL; for Vd: read-out: Tissue distribution Vdss; for AUC(0-t): read-out: Area under plasma concentration-time curve AUC0-last PO; for Cmax: read-out: Peak concentration Cmax
Experimental: SD rats (male, 7-9 weeks old, Beijing Vital River Laboratory Animal Technology Co., Ltd.)
Pharmacokinetic characteristics of the compounds after intravenous injection (IV) and oral administration (PO) in rodents were tested by a standard scheme. The rats were subjected to intravenous injection and oral administration once in the experiment. […]. The vehicle for the intravenous injection was a clear solution of 80% polyethylene glycol 400/20% water, and the vehicle for the oral administration was a homogeneous suspension of 99.9% (0.5% HPMC:Solutol HS15=95:5)/0.1% Tween 80. Four male SD rats were used in this project. Two rats were subjected to intravenous injection, and plasma samples were collected at 0 h (before administration) and 0.083, 0.25, 0.5, 1, 2, 4, 8 and 24 h (after administration); the other two rats were subjected to oral intragastric administration, and plasma samples were collected at 0 h (before administration) and 0.25, 0.5, 1, 2, 4, 8, and 24 h (after administration). Whole blood samples within 24 h were collected. All blood samples were immediately transferred to labeled commercial centrifuge tubes containing K2-EDTA. After blood sample collection, the plasma supernatant was taken by centrifugation at 3200 g at 4° C. for 10 min, immediately placed in dry ice, and then stored at −60° C. or a lower temperature for LC-MS/MS analysis. Plasma concentration-time data were analyzed by a non-compartmental model using a WinNonlin software package (Version 6.3 and above), and pharmacokinetic parameters such as peak concentration (Cmax), clearance (CL), tissue distribution (Vdss), area under plasma concentration-time curve (AUC0-last), bioavailability (F) and the like were calculated.

nuclear receptor = details: background statement; cited from earlier work

| SMILES | IC50 (MR) [nM] | further results |
| --- | --- | --- |
| O=C1COc2cc(F)c(CN3c4ccc(F)cc4OC[C@@H]3Cn3nccn3)cc2N1 [Compound 20] | 27 |  |
| O=C1COc2ccc(CN3c4ccc(F)cc4OC[C@@H]3Cc3c[nH]nn3)c(F)c2N1 [Compound 32] | 50.8 |  |
| CNC(=O)CC1COc2cc(F)cc(F)c2N1Cc1ccc2c(c1)NC(=O)CO2 (stereo not shown) [Compound 5] | 325 |  |
| O=C1COc2ccc(CN3c4ccc(F)cc4OC[C@@H]3Cn3nccn3)cc2N1 [Compound 21] | 50 |  |
| [2H]C([2H])([2H])c1noc(C[C@H]2COc3cc(F)ccc3N2Cc2cc3c(cc2F)OCC(=O)N3)n1 [Compound 29] | 22 |  |
| [2H]C([2H])([2H])n1nnc(C[C@H]2COc3cc(F)ccc3N2Cc2ccc3c(c2)NC(=O)CO3)n1 [Compound 34] | 130 |  |
| Cn1nnc(C[C@H]2COc3cc(F)ccc3N2Cc2cc3c(cc2F)OCC(=O)N3)n1 [Compound 30] | 68 |  |
| CS(=O)(=O)CC1COc2cc(F)ccc2N1Cc1ccc2c(c1)NC(=O)CO2 (stereo not shown) [Compound 7] | 519 |  |
| Cc1c(CN2c3c(F)cc(F)cc3OCC2CC(N)=O)ccc2c1NC(=O)CO2 (single isomer, unassigned) [Compound 42a] | 29.1 | bioavailability ([1]; PO (10 mg/kg)): 34.6%; clearance [1]: 24.4 mL/min/kg; Vd [1]: 1.57 L/kg; AUC(0-t) ([1]; PO (10 mg/kg)): 5.93 µM·h; Cmax ([1]; PO (10 mg/kg)): 2.74 µM |
| Cn1nnc(C[C@H]2COc3cc(F)ccc3N2Cc2ccc3c(c2)NC(=O)CO3)n1 [Compound 27] | 80 |  |
| Cc1noc(C[C@H]2COc3cc(F)ccc3N2Cc2ccc3c(c2F)NC(=O)CO3)n1 [Compound 22] | 9 |  |
| [2H]C([2H])(c1ccc2c(c1)NC(=O)CO2)N1c2ccc(F)cc2OC[C@@H]1Cc1nc(C)no1 [Compound 23] | 29 |  |
| CNC(=O)CC1COc2cc(F)ccc2N1C(C)c1ccc2c(c1)NC(=O)CO2 (stereo not shown) [Compound 6] | 273 |  |
| Cc1noc(C[C@H]2COc3cc(F)ccc3N2Cc2ccc3c(c2)NC(=O)CO3)n1 [Compound 12] | 27 |  |
| CNC(=O)CC1COc2cc(F)ccc2N1Cc1cc(Cl)c2c(c1)NC(=O)CO2 (stereo not shown) [Compound 4] | 289 |  |
| Cc1noc(C[C@H]2COc3cc(F)ccc3N2Cc2cc3c(cc2F)OCC(=O)N3)n1 [Compound 19] | 66 |  |
| Cn1nnc(C[C@H]2COc3cc(F)ccc3N2Cc2ccc3c(c2F)NC(=O)CO3)n1 [Compound 33] | 11 |  |

| SMILES | IC50 (MR) [nM] | further results |
| --- | --- | --- |
| Cn1nnc(C[C@H]2COc3cc(F)ccc3N2Cc2ccc3c(c2Cl)NC(=O)CO3)n1 [Compound 38] | 22.6 |  |
| Cc1nc(C[C@H]2COc3cc(F)ccc3N2Cc2cc(Cl)c3c(c2)NC(=O)CO3)no1 [Compound 25] | 72 |  |
| Cc1noc(C[C@H]2COc3cc(F)ccc3N2Cc2cc(F)c3c(c2)NC(=O)CO3)n1 [Compound 18] | 62 |  |
| Cc1nnn(C[C@H]2COc3cc(F)ccc3N2Cc2cc3c(cc2F)OCC(=O)N3)n1 [Compound 24] | 32 |  |
| Cc1noc(CC2COc3cc(F)ccc3N2C(C)c2ccc3c(c2)NC(=O)CO3)n1 (single isomer, unassigned) [Compound 35b] | 76.6 |  |
| CC(=O)S[C@@H]1CC2=CC(=O)CC[C@]2(C)[C@H]2CC[C@@]3(C)[C@@H](CC[C@@]34CCC(=O)O4)[C@H]12 [spironolactone] |  | nuclear receptor selectivity (nuclear receptor): poor |
| CNC(=O)CC1COc2cc(F)cc(F)c2N1Cc1cc(C)c2c(c1)NC(=O)CO2 (single isomer, unassigned) [Compound 8a] | 130 |  |
| Cc1noc(C[C@H]2COc3cc(F)ccc3N2Cc2ccc3c(c2C)NC(=O)CO3)n1 [Compound 36] | 13.7 | bioavailability ([1]; PO (100 mg/kg)): 64.9%; clearance [1]: 82.6 mL/min/kg; Vd [1]: 6.96 L/kg; AUC(0-t) ([1]; PO (100 mg/kg)): 29.9 µM·h; Cmax ([1]; PO (100 mg/kg)): 5.62 µM |
| Cc1noc(CC2COc3cc(F)ccc3N2C(C)c2ccc3c(c2)NC(=O)CO3)n1 (single isomer, unassigned) [Compound 35a] | 251 |  |
| Cc1c(CN2c3ccc(F)cc3OC[C@@H]2Cc2nnn(C)n2)ccc2c1NC(=O)CO2 [Compound 37] | 43.9 | bioavailability ([1]; PO (100 mg/kg)): 142%; clearance [1]: 47.9 mL/min/kg; Vd [1]: 4.75 L/kg; AUC(0-t) ([1]; PO (100 mg/kg)): 116 µM·h; Cmax ([1]; PO (100 mg/kg)): 18.9 µM |
| Cc1nnn(C[C@H]2COc3cc(F)ccc3N2Cc2ccc3c(c2)NC(=O)CO3)n1 [Compound 14] | 78 |  |
| [2H]C([2H])([2H])c1noc(C[C@H]2COc3cc(F)ccc3N2Cc2ccc3c(c2)NC(=O)CO3)n1 [Compound 28] | 35 |  |
| CCNC(=O)C[C@H]1COc2cc(F)ccc2N1Cc1ccc2c(c1)NC(=O)CO2 [Compound 9] | 403 |  |
| NC(=O)CC1COc2cc(F)cc(F)c2N1Cc1ccc2c(c1Cl)NC(=O)CO2 (single isomer, unassigned) [Compound 43a] | 18 |  |
| O=C1COc2ccc(CN3c4ccc(F)cc4OC[C@@H]3Cc3nc(CO)no3)cc2N1 [Compound 15] | 107 |  |
| Cn1nnc(C[C@H]2COc3cc(F)ccc3N2Cc2cc(Cl)c3c(c2)NC(=O)CO3)n1 [Compound 26] | 32 |  |
| Cc1noc(C[C@H]2COc3cc(F)ccc3N2Cc2cc(Cl)c3c(c2)NC(=O)CO3)n1 [Compound 10] | 15 |  |
